# According to patent publication US11725011B2, “Bicyclic urea kinase inhibitors and uses thereof” (The Broad Institute, Inc., priority 2016, dated 2023):
# Tests used:
# SIK2 = SIK2 (Homo sapiens (Human), UniProt Q9H0K1); experiment: Percent activity against SIK2 at 1 μM; format: biochemical; conditions: for SIK2 % ACTIVITY: compound at 1 μM, approximate Km for ATP
# SIK1 = SIK1 (Homo sapiens (Human), UniProt P57059); experiment: Percent activity against SIK1 at 1 μM; format: biochemical; conditions: for SIK1 % ACTIVITY: compound at 1 μM, approximate Km for ATP
# [1] = qAC50 biological assay (Table 4); conditions: for Data Mode: curve direction of qAC50 data
# Viability loss (Table 4) = format: cell-based
# SIK3 = SIK3 (Homo sapiens (Human), UniProt Q9Y2K2); experiment: Percent activity against SIK3 at 1 μM; format: biochemical; conditions: for SIK3 % ACTIVITY: compound at 1 μM, approximate Km for ATP
# [2] = target: full length His6-MBP-tagged hSIK2 (Homo sapiens (Human), UniProt Q9H0K1); experiment: SIK2 kinase activity assay (Caliper-based mobility shift); format: biochemical; conditions: 4 nM hSIK2, 30 μM ATP, 1 hr, rt
# Experimental: Reactions were quenched by adding 20 mM EDTA (pH 8) after 1 hr, and percentage of substrate conversion was measured by LabChip EZ Reader II (PerkinElmer).
# Chain of SIK2 (Q9H0K1 whole entry): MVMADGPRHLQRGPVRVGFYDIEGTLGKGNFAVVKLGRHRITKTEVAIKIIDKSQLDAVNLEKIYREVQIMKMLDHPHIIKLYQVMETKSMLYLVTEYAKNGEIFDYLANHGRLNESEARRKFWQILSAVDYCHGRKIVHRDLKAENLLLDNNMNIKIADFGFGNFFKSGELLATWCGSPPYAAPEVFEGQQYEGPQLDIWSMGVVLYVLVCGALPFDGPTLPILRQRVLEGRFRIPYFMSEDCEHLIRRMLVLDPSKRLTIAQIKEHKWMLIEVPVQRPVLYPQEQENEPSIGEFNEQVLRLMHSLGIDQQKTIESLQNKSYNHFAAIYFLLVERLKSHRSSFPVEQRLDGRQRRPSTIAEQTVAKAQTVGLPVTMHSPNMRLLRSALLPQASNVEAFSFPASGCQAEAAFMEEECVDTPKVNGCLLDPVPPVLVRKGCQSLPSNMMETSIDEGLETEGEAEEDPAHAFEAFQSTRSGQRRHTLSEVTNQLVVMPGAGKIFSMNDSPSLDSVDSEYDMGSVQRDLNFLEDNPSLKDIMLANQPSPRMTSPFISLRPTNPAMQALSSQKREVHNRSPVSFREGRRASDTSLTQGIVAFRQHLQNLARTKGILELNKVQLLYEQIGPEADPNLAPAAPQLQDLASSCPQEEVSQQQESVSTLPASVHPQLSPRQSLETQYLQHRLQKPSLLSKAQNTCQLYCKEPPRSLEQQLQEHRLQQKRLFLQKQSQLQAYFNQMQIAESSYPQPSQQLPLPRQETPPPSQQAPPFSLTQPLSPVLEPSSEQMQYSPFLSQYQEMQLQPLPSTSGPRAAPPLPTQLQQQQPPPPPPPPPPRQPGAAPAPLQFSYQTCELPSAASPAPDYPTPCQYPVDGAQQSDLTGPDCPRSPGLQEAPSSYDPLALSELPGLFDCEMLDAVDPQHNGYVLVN
# Chain of SIK3 (Q9Y2K2 whole entry): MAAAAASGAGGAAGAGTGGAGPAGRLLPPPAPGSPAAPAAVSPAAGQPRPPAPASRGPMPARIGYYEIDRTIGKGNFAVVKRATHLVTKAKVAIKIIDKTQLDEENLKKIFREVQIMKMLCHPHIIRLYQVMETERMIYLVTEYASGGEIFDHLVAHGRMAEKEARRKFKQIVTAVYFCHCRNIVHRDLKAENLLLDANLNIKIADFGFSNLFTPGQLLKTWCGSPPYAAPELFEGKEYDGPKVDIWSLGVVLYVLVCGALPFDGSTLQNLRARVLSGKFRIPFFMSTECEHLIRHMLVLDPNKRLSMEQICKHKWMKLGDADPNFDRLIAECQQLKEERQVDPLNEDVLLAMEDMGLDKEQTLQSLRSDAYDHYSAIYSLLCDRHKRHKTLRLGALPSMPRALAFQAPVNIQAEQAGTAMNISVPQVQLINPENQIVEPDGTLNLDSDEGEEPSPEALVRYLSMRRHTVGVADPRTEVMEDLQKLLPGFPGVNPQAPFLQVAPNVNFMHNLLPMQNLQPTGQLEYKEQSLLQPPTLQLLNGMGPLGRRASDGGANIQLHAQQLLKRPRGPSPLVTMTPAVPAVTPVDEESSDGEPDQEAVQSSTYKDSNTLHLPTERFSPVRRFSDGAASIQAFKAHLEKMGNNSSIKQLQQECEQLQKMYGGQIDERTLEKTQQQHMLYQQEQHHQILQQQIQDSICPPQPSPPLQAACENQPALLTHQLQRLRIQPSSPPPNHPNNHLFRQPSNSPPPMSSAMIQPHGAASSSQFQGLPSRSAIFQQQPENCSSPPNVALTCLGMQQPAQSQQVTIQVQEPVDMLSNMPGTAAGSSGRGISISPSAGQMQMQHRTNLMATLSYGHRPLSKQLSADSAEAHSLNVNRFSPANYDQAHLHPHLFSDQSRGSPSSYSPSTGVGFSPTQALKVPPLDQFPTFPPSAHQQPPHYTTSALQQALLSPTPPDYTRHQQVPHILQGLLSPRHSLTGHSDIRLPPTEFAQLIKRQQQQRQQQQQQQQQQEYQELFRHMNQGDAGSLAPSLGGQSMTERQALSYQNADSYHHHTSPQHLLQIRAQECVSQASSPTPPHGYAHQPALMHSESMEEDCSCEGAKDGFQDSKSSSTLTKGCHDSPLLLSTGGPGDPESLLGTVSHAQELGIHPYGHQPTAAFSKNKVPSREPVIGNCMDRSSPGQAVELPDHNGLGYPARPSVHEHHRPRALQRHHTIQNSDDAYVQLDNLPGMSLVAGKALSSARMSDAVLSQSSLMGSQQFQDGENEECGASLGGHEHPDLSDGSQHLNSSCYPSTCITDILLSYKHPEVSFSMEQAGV
# Chain of SIK1 (P57059 whole entry): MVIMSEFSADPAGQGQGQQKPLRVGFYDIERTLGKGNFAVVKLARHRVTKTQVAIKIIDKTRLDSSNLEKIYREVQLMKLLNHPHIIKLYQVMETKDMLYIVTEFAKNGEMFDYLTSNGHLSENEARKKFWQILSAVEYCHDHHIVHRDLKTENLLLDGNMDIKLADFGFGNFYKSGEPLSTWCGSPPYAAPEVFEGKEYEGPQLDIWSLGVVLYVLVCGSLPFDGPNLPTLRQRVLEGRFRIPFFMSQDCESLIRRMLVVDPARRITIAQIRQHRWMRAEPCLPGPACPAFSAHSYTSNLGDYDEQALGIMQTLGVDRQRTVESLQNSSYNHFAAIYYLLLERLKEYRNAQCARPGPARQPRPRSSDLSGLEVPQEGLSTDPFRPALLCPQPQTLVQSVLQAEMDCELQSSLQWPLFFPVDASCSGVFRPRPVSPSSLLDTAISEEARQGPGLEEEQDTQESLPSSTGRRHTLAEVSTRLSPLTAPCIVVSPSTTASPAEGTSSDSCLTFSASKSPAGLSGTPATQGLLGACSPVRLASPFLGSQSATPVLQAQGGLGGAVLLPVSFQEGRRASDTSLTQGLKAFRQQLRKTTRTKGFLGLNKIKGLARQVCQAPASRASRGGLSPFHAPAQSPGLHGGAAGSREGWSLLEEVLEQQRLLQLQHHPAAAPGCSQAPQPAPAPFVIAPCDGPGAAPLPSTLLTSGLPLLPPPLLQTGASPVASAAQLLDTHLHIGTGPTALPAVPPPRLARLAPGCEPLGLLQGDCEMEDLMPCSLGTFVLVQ
# Chain of full length His6-MBP-tagged hSIK2 (Q9H0K1 whole entry): as the sequence (Q9H0K1 whole entry) above
Compound,SIK2 % ACTIVITY (SIK2),SIK1 % ACTIVITY (SIK1),Enzyme activity at 1 μM (%) SIK2 (SIK2),Enzyme activity at 1 μM (%) SIK1 (SIK1),Enzyme activity at 1 μM (%) SIK3 (SIK3),SIK3 % ACTIVITY (SIK3),IC50 [2],qAC50 [1],Data Mode [1],Viability loss AC40 (Viability loss (Table 4)),Viability loss data mode (Viability loss (Table 4))
Cc1ccc(Nc2ncc3c(n2)N(C)C(=O)N(c2cc(NC(=O)c4cccc(C(F)(F)F)c4)ccc2C)C3)cn1 [GNF-7],27.4%,12.0%,,,,,,,,,
Cc1ccc(NC(=O)c2cccc(C(F)(F)F)c2)cc1N1Cc2cnc(Nc3ccc(N4CCN(C)CC4)cc3)nc2N(C)C1=O [HG-11-23-01],7.0%,12.5%,7%,12.5%,,,,<50 nM,decreasing,106 nM,decreasing
CN1CCN(c2ccc(Nc3ncc4c(n3)N(C)C(=O)N(c3ccccc3)C4)cc2)CC1 [HG-11-137-01],1.4%,12.9%,1.4%,12.9%,8.6%,8.6%,,466 nM,increasing,6960 nM,decreasing
COc1ccc(N2C(=O)N(c3c(C)cccc3C)Cc3cnc(Nc4ccc(N5CCN(C)CC5)cc4OC)nc32)c(OC)c1 [HG-11-139-01],2.1%,15.3%,2.1%,15.3%,7.5%,7.5%,,<50 nM,increasing,8910 nM,decreasing

# The next lines start with results.
SIK2 % ACTIVITY (SIK2),SIK1 % ACTIVITY (SIK1),Enzyme activity at 1 μM (%) SIK2 (SIK2),Enzyme activity at 1 μM (%) SIK1 (SIK1),Enzyme activity at 1 μM (%) SIK3 (SIK3),SIK3 % ACTIVITY (SIK3),IC50 [2],Compound,qAC50 [1],Data Mode [1],Viability loss AC40 (Viability loss (Table 4)),Viability loss data mode (Viability loss (Table 4))
32.8%,36.0%,,,,,,COc1cc(N2CCN(C)CC2)ccc1Nc1ncc2c(n1)N(C)C(=O)N(c1ccccc1)C2 [HG-11-139-02],>26000 nM,increasing,> 10000 nM,inactive
4.3%,7.9%,4.3%,7.9%,9.3%,9.3%,,COc1ccc(N2C(=O)N(c3c(C)cccc3C)Cc3cnc(Nc4cc(N5CCOCC5)cc(N5CCN(C)CC5)c4)nc32)c(OC)c1 [HG-11-143-01],469 nM,decreasing,,
,,,,,,6 ± 3 nM,COc1ccc(N2C(=O)N(c3c(C)cccc3Cl)Cc3cnc(Nc4ccc(N5CCN(C)CC5)cc4)nc32)nc1 [YKL-05-95],,,,
,,,,,,34 ± 14 nM,COc1ccc(N2C(=O)N(c3c(C)cccc3Cl)Cc3cnc(Nc4ccc(N5CCN(C)CC5)cc4OC)nc32)nc1 [YKL-05-96],,,,
